Data set [1] concerns the target T1, human EGF-R (Homo sapiens, UniProt P00533).
T1 construct: expressed in transfected cells; host or cells: F/L-HERc cells (murine IL-3-dependent FDC-P1 line, transduced with retroviral vector LXSN carrying human EGF-R cDNA; packaging line GP+E86)
In words: Inhibition of EGF-dependent proliferation of F/L-HERc cells. Type of data set: cell-based. The settings on record: F/L-HERc cells (murine IL-3-dependent line expressing human EGF-R), stimulated with EGF 20 ng/ml, 48 hours, Cell Titer 96 assay. From the text:
A cell line of murine origin dependent on interleukin-3-(IL-3) which was genetically modified to express functional human EGF-R was used here. The proliferation of these cells known as F/L-HERc can therefore be stimulated either by murine IL-3 or by EGF (cf. von Rüden, T. et al. in EMBO J . 7, 2749-2756 (1988) and Pierce, J. H. et al. in Science 239, 628-631 (1988)).
The starting material used for the F/L-HERc cells was the cell line FDC-P1, the production of which has been described by Dexter, T. M. et al. in J. Exp. Med. 152, 1036-1047 (1980). Alternatively, however, other growth-factor-dependent cells may also be used (cf. for example Pierce, J. H. et al. in Science 239, 628-631 (1988), Shibuya, H. et al. in Cell 70, 57-67 (1992) and Alexander, W. S. et al. in EMBO J. 10, 3683-3691 (1991)). […]
In order to determine the inhibitory activity of the compounds according to the invention the relative cell number was measured in O.D. units using the Cell Titer 96™ Aqueous Non-Radioactive Cell Proliferation Assay (Promega). […]

The results in this text go back to patent US6403580B1, “Quinazolines, pharmaceutical compositions containing these compounds, their use and processes for preparing them” (Boehringer Ingelheim Pharma KG, priority 2000, dated 2002).

SMILES strings stand for the structures.

In general, melting point refers to the temperature of the solid-liquid transition. For orientation: IC50 means the midpoint of a concentration-inhibition curve. Higher therefore signals lower potency.

T1 sequence (P00533 25-1210): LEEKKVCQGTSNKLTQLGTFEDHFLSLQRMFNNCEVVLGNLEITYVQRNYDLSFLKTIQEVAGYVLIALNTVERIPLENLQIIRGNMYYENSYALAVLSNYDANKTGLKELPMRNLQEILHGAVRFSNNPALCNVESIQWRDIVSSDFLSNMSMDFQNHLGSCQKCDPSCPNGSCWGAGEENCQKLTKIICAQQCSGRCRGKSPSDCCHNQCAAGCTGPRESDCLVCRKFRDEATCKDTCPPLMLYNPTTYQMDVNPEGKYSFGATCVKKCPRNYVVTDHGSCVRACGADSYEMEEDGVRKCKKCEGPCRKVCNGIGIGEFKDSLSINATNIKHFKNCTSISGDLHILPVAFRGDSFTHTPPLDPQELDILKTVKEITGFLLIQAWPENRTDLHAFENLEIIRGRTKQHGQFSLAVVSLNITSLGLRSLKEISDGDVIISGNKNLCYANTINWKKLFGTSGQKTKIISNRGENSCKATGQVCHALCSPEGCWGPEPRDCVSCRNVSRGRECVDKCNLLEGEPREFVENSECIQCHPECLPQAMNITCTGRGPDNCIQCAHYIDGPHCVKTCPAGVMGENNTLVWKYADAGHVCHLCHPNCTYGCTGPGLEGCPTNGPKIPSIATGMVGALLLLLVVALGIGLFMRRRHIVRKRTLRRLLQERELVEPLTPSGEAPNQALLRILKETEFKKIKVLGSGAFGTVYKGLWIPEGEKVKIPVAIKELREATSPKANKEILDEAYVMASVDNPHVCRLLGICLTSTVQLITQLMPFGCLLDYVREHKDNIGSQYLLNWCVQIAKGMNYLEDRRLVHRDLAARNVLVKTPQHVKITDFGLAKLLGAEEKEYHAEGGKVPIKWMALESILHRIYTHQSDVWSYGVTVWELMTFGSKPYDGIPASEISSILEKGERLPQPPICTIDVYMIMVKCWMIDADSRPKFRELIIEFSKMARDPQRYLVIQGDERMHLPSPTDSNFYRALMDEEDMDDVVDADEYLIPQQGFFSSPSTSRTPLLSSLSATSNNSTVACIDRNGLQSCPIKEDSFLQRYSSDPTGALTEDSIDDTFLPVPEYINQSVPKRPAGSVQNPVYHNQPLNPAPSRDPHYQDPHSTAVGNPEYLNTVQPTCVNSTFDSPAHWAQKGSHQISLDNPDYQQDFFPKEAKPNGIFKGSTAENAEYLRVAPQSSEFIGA

Molecule `C=CC(=O)Nc1cc2c(Nc3ccc(F)c(Cl)c3)ncnc2cc1OCCN(C)C1COC(=O)C1` (stereo not shown) [Example 1(11), 4-[(3-chloro-4-fluorophenyl)amino]-7-{2-[N-(2-oxo-tetrahydrofuran4-yl)-N-methyl-amino]-ethoxy}-6-[(vinylcarbonyl)amino]-quinazoline] showed a melting point of 195 to 199 °C.

The molecule `C=CC(=O)Nc1cc2c(Nc3ccc(F)c(Cl)c3)ncnc2cc1OCCCCN1CC(=O)OC(C)(C)C1` [Example 1(15), 4-[(3-chloro-4-fluorophenyl)amino]-7-[4-(2,2-dimethyl-6-oxo-morpholin-4-yl)-butyloxy]-6-[(vinylcarbonyl)amino]-quinazoline] displayed a melting point of 110 to 112 °C.

On to `C=CC(=O)Nc1cc2c(Nc3ccc(F)c(Cl)c3)ncnc2cc1OCCN1CC(=O)OC(C)(C)C1` [Example 1(1), 4-[(3-chloro-4-fluoro-phenyl)amino]-7-[2-(2,2-dimethyl-6-oxo-morpholin-4-yl)-ethoxy]-6-[(vinylcarbonyl)amino]-quinazoline], for which the melting point is 182.5 to 184 °C.

Turning to `C=CC(=O)Nc1cc2c(N[C@H](C)c3ccccc3)ncnc2cc1OCCN1CC(=O)OC(C)(C)C1` [1(2), 4-[(R)-(1-phenyl-ethyl)amino]-7-[2-(2,2-dimethyl-6-oxo-morpholin-4-yl)-ethoxy]-6-[(vinylcarbonyl)amino]-quinazoline], the midpoint of inhibition in data set [1], the IC50, lay at 0.4 nM.
